# Laboratory results reported in patent publication US11618749B2, “Compounds and compositions for treating conditions associated with STING activity” (IFM Due, Inc., priority 2018, dated 2023).
# Biological target: T1, hSTING (Homo sapiens, UniProt Q86WV6, G230A/H232R/R293Q/R71H)
# T1 construct: host or cells: THP1-Dual KO-IFNAR2 cells
# Test: STING reporter assay (luciferase reporter) in THP1-Dual KO-IFNAR2 cells activated with 2′3′cGAMP
# Assay type: cell-based
# Conditions: 15 μM 2′3′cGAMP, 24 h, luciferase reporter activity
# Description: STING pathway activation by the compounds described herein is measured using THP1-Dual™ cells (KO-IFNAR2).
# THP1-Dual™ KO-IFNAR2 Cells (obtained from invivogen) are maintained in RPMI, 10% FCS, 5 ml P/S, 2 mM L-glut, 10 mM Hepes, and 1 mM sodium pyruvate. Compounds are spotted in empty 384 well tissue culture plates (Greiner 781182) by Echo for a final concentration of […]. Cells are plated into the TC plates at 40 μL per well, 2×10E6 cells/mL. For activation with STING ligand, 2′3′cGAMP (MW 718.38, obtained from Invivogen), is prepared in Optimem media.
# The following solutions are prepared for each 1×384 plate: • Solution A: 2 mL Optimem with one of the following stimuli: • 60 uL of 10 mM 2′3′cGAMP→150 μM stock • Solution B: 2 mL Optimem with 60 μL Lipofectamine 2000→Incubate 5 min at RT
# 2 mL of solution A and 2 ml Solution B is mixed and incubated for 20 min at room temperature (RT). 20 uL of transfection solution (A+B) is added on top of the plated cells, with a final 2′3′cGAMP concentration of 15 μM. The plates are then centrifuged immediately at 340 g for 1 minute, after which they are incubated at 37° C., 5% CO2, >98% humidity for 24 h. Luciferase reporter activity is then measured. EC50 values were calculated by using standard methods known in the art.
# Luciferase Reporter Assay:
# 10 μL of supernatant from the assay is transferred to white 384-plate with flat bottom and squared wells. one pouch of QUANTI-Luc™ Plus is dissolved in 25 mL of water. 100 μL of QLC Stabilizer per 25 mL of QUANTI-Luc™ Plus solution was added. 50 μL of QUANTI-Luc™ Plus/QLC solution per well is then added. Luminescence is measured on a Platereader (e.g., Spectramax I3X (Molecular Devices GF3637001)).
# Luciferase reporter activity is then measured. EC50 values are calculated by using standard methods known in the art.
# T1 sequence (Q86WV6 whole entry R71H/G230A/H232R/R293Q): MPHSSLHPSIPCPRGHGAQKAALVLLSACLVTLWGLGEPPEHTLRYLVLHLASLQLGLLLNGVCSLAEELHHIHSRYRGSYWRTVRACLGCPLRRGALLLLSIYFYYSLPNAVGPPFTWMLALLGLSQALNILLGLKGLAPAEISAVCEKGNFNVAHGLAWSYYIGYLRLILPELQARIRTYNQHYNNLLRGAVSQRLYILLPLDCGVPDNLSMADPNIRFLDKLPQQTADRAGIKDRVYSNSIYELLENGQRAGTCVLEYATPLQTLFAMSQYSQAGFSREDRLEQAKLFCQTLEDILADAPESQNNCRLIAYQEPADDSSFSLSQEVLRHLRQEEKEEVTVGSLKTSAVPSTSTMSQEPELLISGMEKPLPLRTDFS
row,SMILES,EC50 [µM]
1,"COc1nccc2[nH]cc(NC(=O)Nc3ccc(C(F)(F)F)cc3)c12 [Compound 320, 1-(4-methoxy-1H-pyrrolo[3,2-c]pyridin-3-yl)-3-(4-(trifluoromethyl)phenyl)urea]",5 to 100
2,O=C(Nc1ccc(C2CCCCC2)nc1)Nc1c[nH]c2ccncc12 [Compound 315],1 to 5
3,O=C(Nc1c[nH]c2ncccc12)N1CCCc2ccccc21 [Compound 301],5 to 100
4,O=C(Nc1c[nH]c2ncccc12)N1CCc2ccccc21 [Compound 303],5 to 100
5,CCCCC1CCN(C(=O)Nc2c[nH]c3cccnc23)CC1 [Compound 140],1 to 5
6,CC(C)(O)c1ccc(-c2cnc3[nH]cc(NC(=O)Nc4ccc(C(F)(F)F)cc4)c3c2)cc1 [Compound 209],1 to 5
7,CS(=O)(=O)c1ccc(-c2cnc3[nH]cc(NC(=O)Nc4ccc(C(F)(F)F)cc4)c3c2)cc1 [Compound 207],5 to 100
8,Nc1cnc2[nH]cc(NC(=O)N3CC(c4ccccc4)C3)c2c1 [Compound 249],5 to 100
9,O=C(Nc1cccc(C2CCCCC2)c1)Nc1c[nH]c2cccnc12 [Compound 139],0.2 to 1
10,O=C(Nc1ccc(C(F)(F)F)cc1)Nc1c[nH]c2nccc(-c3ccncc3)c12 [Compound 206],5 to 100
11,O=C(Nc1c[nH]c2ncc(F)cc12)NC1CCC2(CC1)CC2 [Compound 305],1 to 5
12,O=C(Nc1ccc(C2CCCCC2)cn1)Nc1c[nH]c2cnccc12 [Compound 313],1 to 5
13,O=C(Nc1c[nH]c2ncccc12)NC1CCC(c2ccccc2)CC1 (stereo not shown) [Compound 166],0.2 to 1
14,O=C(Nc1ccc(C(F)(F)F)cc1)Nc1c[nH]c2cnc(-c3ccccc3)nc12 [Compound 180],5 to 100
15,CCc1ccc(NC(=O)Nc2c[nH]c3ncc(F)cc23)cc1 [Compound 174],0.04 to 0.2
16,O=C(Nc1ccc(C2CCCCC2)nc1)Nc1c[nH]c2ncccc12 [Compound 263],0.2 to 1
17,O=C(Nc1ccc(C2CCCCC2)cn1)Nc1c[nH]c2ncc(F)cc12 [Compound 261],0.04 to 0.2
18,O=C(Nc1c[nH]c2ncc(F)cc12)NC1CCN(CC(F)(F)F)CC1 [Compound 252],5 to 100
19,O=C(Nc1ncc(-c2ccccc2)s1)Nc1c[nH]c2ncc(F)cc12 [Compound 293],0.2 to 1
20,O=C(Nc1ccc(C2CCC2)c(F)c1)Nc1c[nH]c2ncc(F)cc12 [Compound 250],0.2 to 1
21,O=C(Nc1cnc(-c2ccccc2)s1)Nc1c[nH]c2ncc(F)cc12 [Compound 295],0.2 to 1

row,SMILES,EC50 [µM]
1,O=C(Nc1ccc(C(F)(F)F)c(Cl)c1)Nc1c[nH]c2ncc(F)cc12 [Compound 282],0.2 to 1
2,O=C(Nc1ccc(C(F)(F)F)cc1)Nc1c[nH]c2cccnc12 [Compound 146],1 to 5
3,O=C(Nc1ccc(C(F)(F)F)cc1)Nc1c[nH]c2ncc(Cl)cc12 [Compound 283],0.04 to 0.2
4,C#Cc1cccc(NC(=O)Nc2c[nH]c3ncc(F)cc23)c1 [Compound 251],0.2 to 1
5,"O=C(Nc1ccc(C(F)(F)F)cc1)Nc1c[nH]c2ncc(F)cc12 [Compound 173, 1-(5-fluoro-1H-pyrrolo[2,3-b]pyridin-3-yl)-3-(4-(trifluoromethyl)phenyl)urea]",0.04 to 0.2
6,CN1CC=C(c2ccnc3[nH]cc(NC(=O)Nc4ccc(C(F)(F)F)cc4)c23)CC1 [Compound 195],5 to 100
7,O=C(Nc1c[nH]c2cccnc12)NC1CCC(C(F)(F)F)CC1 (stereo not shown) [Compound 141],5 to 100
8,Cn1cc(-c2cnc3[nH]cc(NC(=O)Nc4ccc(C(F)(F)F)cc4)c3c2)c(C(F)(F)F)n1 [Compound 198],1 to 5
9,O=C(Nc1ccc(C(F)(F)F)cc1)Nc1c[nH]c2c(Cl)ncnc12 [Compound 183],5 to 100
10,CCc1ccc(NC(=O)Nc2c[nH]c3ncncc23)cc1 [Compound 183b],5 to 100
11,CCc1cnc(NC(=O)Nc2c[nH]c3ncccc23)s1 [Compound 168],5 to 100
12,CCCCC1CCC(NC(=O)Nc2c[nH]c3ncccc23)CC1 (stereo not shown) [Compound 170],0.2 to 1
13,O=C(Nc1cccc(C(F)(F)F)c1)Nc1c[nH]c2ncccc12 [Compound 150],1 to 5
14,CCCCC1CCN(C(=O)Nc2c[nH]c3ncccc23)CC1 [Compound 132],1 to 5
15,O=C(Nc1ccc(C2CCCCC2)nc1)Nc1c[nH]c2ncc(F)cc12 [Compound 272],0.04 to 0.2
16,O=C(Nc1c[nH]c2ncccc12)NC1CC(c2ccccc2)C1 (stereo not shown) [Compound 133],5 to 100
17,O=C(Nc1ccc(C(F)(F)F)cc1)Nc1c[nH]c2cncc(F)c12 [Compound 164],5 to 100
18,O=C(Nc1ccc(C(F)(F)F)nc1)Nc1c[nH]c2ncc(F)cc12 [Compound 281],1 to 5
19,N#Cc1cnc2[nH]cc(NC(=O)Nc3ccc(C(F)(F)F)cc3)c2c1 [Compound 151],0.2 to 1
20,O=C(Nc1ccc(C(F)(F)F)cc1)Nc1c[nH]c2c(F)cncc12 [Compound 165],0.2 to 1
21,O=C(Nc1c[nH]c2ncc(F)cc12)NC1CCC2(CCCCC2)CC1 [Compound 300],0.2 to 1

# Further lines, results first:
row,EC50 [µM],SMILES
1,5 to 100,O=C(Nc1c[nH]c2cccnc12)NC1CCC(c2ccccc2)CC1 (stereo not shown) [Compound 325]
2,5 to 100,O=C(Nc1c[nH]c2ncccc12)NC1Cc2ccccc2C1 [Compound 302]
3,5 to 100,O=C(Nc1cc(F)cc(F)c1)Nc1c[nH]c2ncccc12 [Compound 299]
4,5 to 100,CCc1ccc(NC(=O)Nc2c[nH]c3ncccc23)nc1 [Compound 169]
5,1 to 5,"O=C(Nc1ccc(C(F)(F)F)cc1)Nc1c[nH]c2ncc(C3CCCCC3)cc12 [Compound 267, 3-[5-cyclohexyl-1H-pyrrolo[2,3-b]pyridin-3-yl]-1-[4-(trifluoromethyl)phenyl] urea]"
6,5 to 100,O=C(Nc1c[nH]c2ncccc12)N1CCCC(c2ccccc2)C1 (stereo not shown) [Compound 307]
7,0.2 to 1,"C#Cc1cnc2[nH]cc(NC(=O)Nc3ccc(C(F)(F)F)cc3)c2c1 [Compound 258, 1-(5-ethynyl-1H-pyrrolo[2,3-b]pyridin-3-yl)-3-(4-(trifluoromethyl)phenyl)urea]"
8,5 to 100,CC(c1ccc(-c2ccnc3[nH]cc(NC(=O)Nc4ccc(C(F)(F)F)cc4)c23)cc1)N(C)C (stereo not shown) [Compound 192]
9,5 to 100,CN(C(=O)Nc1c[nH]c2ncc(F)cc12)c1ccc(C(F)(F)F)cc1 [Compound 172]
10,1 to 5,O=C(Nc1c[nH]c2ccc(-c3ccccc3)nc12)NC1CCC(C(F)(F)F)CC1 (stereo not shown) [Compound 335]
11,0.2 to 1,CCCCC1CCC(N/C(=N\C#N)Nc2c[nH]c3cccnc23)CC1 (stereo not shown) [Compound 336]
12,1 to 5,O=C(Nc1c[nH]c2cnccc12)NC1CCC(c2ccccc2)CC1 (stereo not shown) [Compound 137]
13,5 to 100,CC(C)n1cc(-c2ccnc3[nH]cc(NC(=O)Nc4ccc(C(F)(F)F)cc4)c23)cn1 [Compound 186]
14,5 to 100,"O=C(Nc1ccc(C(F)(F)F)cc1)Nc1c[nH]c2ccc(-c3ccccc3)nc12 [Compound 328, 1-(5-phenyl-1H-pyrrolo[3,2-b]pyridin-3-yl)-3-(4-(trifluoromethyl)phenyl)urea]"
15,0.2 to 1,O=C(Nc1nc2ccccc2s1)Nc1c[nH]c2ncc(F)cc12 [Compound 292]
16,1 to 5,O=C(Nc1ccc(C2CCCCC2)nc1)Nc1c[nH]c2cnccc12 [Compound 312]
17,1 to 5,CC(C)(O)c1cccc(-c2cnc3[nH]cc(NC(=O)Nc4ccc(C(F)(F)F)cc4)c3c2)c1 [Compound 215]
18,5 to 100,CC(c1ccc(-c2cnc3[nH]cc(NC(=O)Nc4ccc(C(F)(F)F)cc4)c3c2)cc1)N(C)C (stereo not shown) [Compound 196]
19,1 to 5,CN(C)S(=O)(=O)c1cccc(-c2cnc3[nH]cc(NC(=O)Nc4ccc(C(F)(F)F)cc4)c3c2)c1 [Compound 204]
20,5 to 100,O=C(Nc1c[nH]c2ncccc12)NC1CCCC(c2ccccc2)C1 (stereo not shown) [Compound 304]
21,5 to 100,O=C(Nc1c[nH]c2ncccc12)NC1CC2CCC(C2)C1 (stereo not shown) [Compound 160]
22,5 to 100,O=C(Nc1c[nH]c2cccnc12)NC1CC2CCC(C2)C1 (stereo not shown) [Compound 157]
23,0.2 to 1,O=C(Nc1ccc(C2CCCCC2)cn1)Nc1c[nH]c2ccncc12 [Compound 316]
24,0.2 to 1,CCCCc1ccc(NC(=O)Nc2c[nH]c3ncc(F)cc23)nc1 [Compound 259]
25,5 to 100,"O=C(Nc1c[nH]c2ncc(-c3ccccc3)cc12)NC1CCC(C(F)(F)F)CC1 (stereo not shown) [Compound 162, 3-[5-phenyl-1H-pyrrolo[2,3-b]pyridin-3-yl]-1l-[4-(trifluoromethyl)cyclohexyl]urea]"
26,5 to 100,O=C(Nc1ccc(C(F)(F)F)nc1)Nc1c[nH]c2cccnc12 [Compound 156]
27,5 to 100,O=C(Nc1c[nH]c2ncccc12)NC1CCCc2ccccc21 (stereo not shown) [Compound 135]
28,5 to 100,CCCCc1ccc(N(CC)C(=O)Nc2c[nH]c3ncc(F)cc23)cc1 [Compound 245]
